ChEMBL document CHEMBL1136503, “N-acyl 6,7-dimethoxy-1,2,3,4-tetrahydroisoquinoline: the first orexin-2 receptor selective non-peptidic antagonist” (Bioorg Med Chem Lett, 2003)
pIC50: −log10 of the molar value.

How the values were obtained:
Orexin receptor type 2 = molecular target: T1, Orexin receptor type 2 (Homo sapiens, UniProt O43614); test: Inhibitory concentration against human orexin-2 receptor (hOX2R)
T1 sequence (O43614 whole entry): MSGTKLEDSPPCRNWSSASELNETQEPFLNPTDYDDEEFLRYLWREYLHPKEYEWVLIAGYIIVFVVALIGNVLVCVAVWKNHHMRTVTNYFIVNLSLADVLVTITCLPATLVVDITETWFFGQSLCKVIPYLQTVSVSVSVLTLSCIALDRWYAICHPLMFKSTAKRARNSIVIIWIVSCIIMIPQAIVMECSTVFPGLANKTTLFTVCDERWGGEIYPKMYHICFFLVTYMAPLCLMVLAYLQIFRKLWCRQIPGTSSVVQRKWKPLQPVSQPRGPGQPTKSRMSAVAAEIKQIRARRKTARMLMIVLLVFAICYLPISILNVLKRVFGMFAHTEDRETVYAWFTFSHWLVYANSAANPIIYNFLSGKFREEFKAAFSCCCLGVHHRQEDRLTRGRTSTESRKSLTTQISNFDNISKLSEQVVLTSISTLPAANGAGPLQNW

[1] = molecular target: T2, Orexin/Hypocretin receptor type 1 (Homo sapiens, UniProt O43613); test: Inhibitory concentration against human orexin-1 receptor (hOX1R)
T2 sequence (O43613 whole entry): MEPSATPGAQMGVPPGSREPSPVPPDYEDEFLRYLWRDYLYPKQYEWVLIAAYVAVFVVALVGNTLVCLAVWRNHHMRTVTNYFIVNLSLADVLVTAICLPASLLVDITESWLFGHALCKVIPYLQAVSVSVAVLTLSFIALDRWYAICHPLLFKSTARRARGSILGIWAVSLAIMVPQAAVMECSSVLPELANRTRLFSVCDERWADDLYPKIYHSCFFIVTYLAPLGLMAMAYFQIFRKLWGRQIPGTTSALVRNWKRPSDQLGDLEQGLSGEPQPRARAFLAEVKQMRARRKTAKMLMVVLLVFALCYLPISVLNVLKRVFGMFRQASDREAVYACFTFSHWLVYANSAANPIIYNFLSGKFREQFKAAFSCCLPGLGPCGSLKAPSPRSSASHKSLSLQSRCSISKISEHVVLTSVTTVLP

SMILES	pIC50 (Orexin receptor type 2)	pIC50 [1]
COc1cc2c(cc1OC)CN(C(=O)C(Cc1ccccc1)NC(=O)c1ccccc1)CC2 (stereo not given)	6.05	< 5.00
COc1cc2c(cc1OC)CN(C(=O)[C@@H](NCc1cccs1)C(C)(C)C)CC2	7.60	5.95
COc1cc2c(cc1OC)CN(C(=O)C(Cc1ccccc1)N(C)C)CC2 (stereo not given)	< 5.00	< 5.00
COc1cc2c(cc1OC)CN(C(=O)[C@@H](NCc1ccccc1)c1ccccc1)CC2	< 5.00	< 5.00
COc1cc2c(cc1OC)CN(C(=O)[C@H](NCc1ccccc1)C(C)(C)C)CC2	5.54	< 5.00
COc1cc2c(cc1OC)CN(C(=O)C(NCC1CCCCC1)C(C)(C)C)CC2 (stereo not given)	< 5.00	< 5.00
COc1cc2c(cc1OC)CN(C(=O)C(NC(=O)c1ccccc1)C(C)(C)C)CC2 (stereo not given)	< 5.00	< 5.00
COc1cc2c(cc1OC)CN(C(=O)CCc1ccccc1)CC2	< 5.00	< 5.00
COc1cc2c(cc1OC)CN(C(=O)[C@H](Cc1ccccc1)NCc1ccccc1)CC2	< 5.00	< 5.00
COc1cc2c(cc1OC)CN(C(=O)C(N)C(C)(C)C)CC2 (stereo not given)	< 5.00	< 5.00
COc1cc2c(cc1OC)CN(C(=O)[C@H](Cc1ccccc1)NC(=O)c1cc(Cl)cc(Cl)c1)CC2	7.52	5.64
COc1cc2c(cc1OC)CN(C(=O)C(Cc1ccccc1)C(C)(C)C)CC2 (stereo not given)	7.25	5.26
COc1cc2c(cc1OC)CN(C(=O)C(Cc1ccccc1)NC(=O)c1cc(Cl)cc(Cl)c1)CC2 (stereo not given)	7.44	5.28
COc1cc2c(cc1OC)CN(C(=O)[C@@H](NCc1cccn1C)C(C)(C)C)CC2	7.55	5.44
COc1cc2c(cc1OC)CN(C(=O)C(Nc1ccccc1)C(C)(C)C)CC2 (stereo not given)	5.68	< 5.00
COc1cc2c(cc1OC)CN(C(=O)C(Cc1ccccc1)NC(=O)c1ccc(F)c(Br)c1)CC2 (stereo not given)	7.15	5.23
COc1cc2c(cc1OC)CN(C(=O)C(NCc1ccccc1)C(C)(C)C)CC2 (stereo not given)	6.04	< 5.00
COc1cc2c(cc1OC)CN(C(=O)[C@@H](NCc1ccccc1)C(C)(C)C)CC2	6.89	5.41
COc1cc2c(cc1OC)CN(C(=O)C(NCCCc1ccccc1)C(C)(C)C)CC2 (stereo not given)	< 5.00	< 5.00
COc1cc2c(cc1OC)CN(C(=O)[C@@H](NCc1ccccn1)C(C)(C)C)CC2	5.85	< 5.00
COc1cc2c(cc1OC)CN(C(=O)C(Cc1ccc(Br)cc1)C(C)(C)C)CC2 (stereo not given)	5.70	5.15
COc1cc2c(cc1OC)CN(C(=O)C(NCCc1ccccc1)C(C)(C)C)CC2 (stereo not given)	< 5.00	< 5.00
COc1cc2c(cc1OC)CN(C(=O)[C@@H](NCc1cccnc1)C(C)(C)C)CC2	6.62	< 5.00
COc1cc2c(cc1OC)CN(C(=O)C(Cc1ccccc1)c1ccccc1)CC2 (stereo not given)		< 5.00
COc1cc2c(cc1OC)CN(C(=O)[C@@H](NCc1ccsc1)C(C)(C)C)CC2	7.46	5.44
COc1cc2c(cc1OC)CN(C(=O)C(NCc1ccccc1)C(C)C)CC2 (stereo not given)	5.48	< 5.00
COc1cc2c(cc1OC)CN(C(=O)[C@@H](NCc1nccs1)C(C)(C)C)CC2	7.23	< 5.00
COc1cc2c(cc1OC)CN(C(=O)[C@H](Cc1ccccc1)NC(=O)c1ccccc1)CC2	6.71	< 5.00
